Key:
HOS = assay: In vitro cytotoxic activity, Calcein AM assay, HOS; assay type: cell-based; conditions: 72 hours
[1] = tested on: human erythroleukaemia K562; assay: In vitro cytotoxic activity, Calcein AM assay, K-562; assay type: cell-based; conditions: 72 hours, read-out: IC 50 K-562
Text: (§1) One of the parameters used, as the basis for cytotoxicity assays, is the metabolic activity of viable cells. For example, a microtiter assay, which uses the Calcein AM, is now widely used to quantitate cell proliferation and cytotoxicity. For instance, this assay is used in drug screening programs and in chemosensitivity testing. Because only metabolically active cells cleave Calcein AM, these assays detect viable cells exclusively. The quantity of reduced Calcein AM corresponds to the number of vital cells in the culture.
(§2) Human T-lymphoblastic leukemia cell line CEM; promyelocytic HL-60 and monocytic U937 leukemias; breast carcinoma cell lines MCF-7; cervical carcinoma cells HELA; mouse fibroblasts NIH3T3; human erythroleukaemia K562 and human malignant melanoma cells G361 were used for routine screening of compounds. The cells were maintained in Nunc/Corning 80 cm^2 plastic tissue culture flasks and cultured in cell culture medium (DMEM with 5 g/l glucose, 2 mM glutamine, 100 U/ml penicillin, 100 μg/ml streptomycin, 10% fetal calf serum and sodium bicarbonate).
(§3) The cell suspensions that were prepared and diluted according to the particular cell type and the expected target cell density (10^4 cells per well based on cell growth characteristics) were added by pipette (80 μl) into 96/well microtiter plates. Inoculates were allowed a pre-incubation period of 24 hours at 37° C. and 5% CO2 for stabilisation. Four-fold dilutions of the intended test concentration were added at time zero in 20 μl aliquots to the microtiter plate wells. Usually, test compound was evaluated at six 4-fold dilutions. In routine testing, the highest well concentration was 166.7 μM, but it can be the matter of change dependent on the agent. All drug concentrations were examined in duplicates. Incubations of cells with the test compounds lasted for 72 hours at 37° C., in 5% CO2 atmosphere and 100% humidity. At the end of incubation period, the cells were assayed by using the Calcein AM. Ten microliters of the stock solution were pipetted into each well and incubated further for 1 hours. Fluorescence (FD) was measured with the Labsystem FIA Reader Fluoroscan Ascent (UK). The tumour cell survival (GI50) was calculated using the following equitation: GI50=(FDdrug exposed well/mean FDcontrol wells)×100%. The GI50 value, the drug concentration lethal to 50% of the tumour cells, was calculated from the obtained dose response curves (FIG. 3).

[2] = tested on: breast carcinoma cell lines MCF-7; assay: In vitro cytotoxic activity, Calcein AM assay, MCF7; assay type: cell-based, human; conditions: 72 hours, read-out: IC 50 MCF7
Text: as §1, §2, §3

mouse fibroblasts NIH3T3 = assay: In vitro cytotoxic activity, Calcein AM assay, NIH-3T3; assay type: cell-based; conditions: 72 hours, read-out: IC 50 NIH-3T3
Text: as §1, §2, §3

[3] = tested on: Human T-lymphoblastic leukemia cell line CEM; assay: In vitro cytotoxic activity, Calcein AM assay, CEM; assay type: cell-based; conditions: 72 hours
Text: as §1, §2, §3

promyelocytic HL-60 = assay: In vitro cytotoxic activity, Calcein AM assay, HL60; assay type: cell-based, human; conditions: 72 hours, read-out: IC 50 HL60
Text: as §1, §2, §3

[4] = tested on: Amaranthus caudatus cotyledon/hypocotyl explants; assay: Amaranthus bioassay (betacyanin content); assay type: in vivo; conditions: for Concentration with highest activity: 48 h dark; for Activity (%) [10^−5 mol · l^−1 BAP = 100%]: at concentration with highest activity
Experimental: Standard Amaranthus bioassay was performed with several modifications. The seeds of Amaranthus caudatus var. atropurpurea were surface-sterilised in 10% N-chlorobenzenesulfonamide (w/v) for 10 min and washed 5 times in deionized water. They were placed in 15 cm Petri dishes containing paper tissues saturated with deionized water. After 72 h of cultivation at 25° C. in darkness, the roots of the seedlings were cut off. The explants, consisting of two cotyledons and hypocotyls, were placed in 5 cm Petri dishes on two layers of filter paper soaked in 1 ml of incubation medium containing 10 μmol NA2HPO4-KH2PO4, pH 6.8, 5 μmol tyrosine and the cytokinin to be tested. There were 20 explants per dish. The procedure was carried out under a green safe light in a darkroom. After a 48 h of incubation at 25° C. in darkness, betacyanin was extracted by freezing the explants in 4 ml […] acetic acid. The concentration of betacyanin was determined by comparing the absorbance at 537 nm and 620 nm as follows: ΔA=[…]-[…]. From the obtained data, the concentration with highest activity was selected for each compound tested. Relative activity of the compound at this concentration was calculated (Tab. 12). […] The values shown in table 8 are means of five replicates and the entire test was repeated twice. The cytokinins to be tested were dissolved in dimethylsulfoxide (DMSO) and the solution brought up to 10^-3M with distilled water. This stock was further diluted in the respective media used for the biotest to concentrations ranging from 10^-8M to 10^-4M. […] From the data obtained (FIG. 14) the maximum effective concentration of the tested compound was calculated as well as its relative effectiveness at this concentration (Table 12). […]

[5] = tested on: Triticum aestivum cv. Hereward; assay: Senescence inhibition on winter wheat leaf segments (chlorophyll retention); assay type: in vivo; conditions: for Concentration with highest activity: chlorophyll retention in excised wheat leaf tips, 96 h dark; for Activity (%) [10^−4 mol · l^−1 BAP = 100%]: chlorophyll retention, at concentration with highest activity
Experimental: Seeds of winter wheat, Triticum aestivum cv. Hereward, were washed under running water for 24 hours and then sown on vermiculite soaked with Knop's solution. They were placed in the grown chamber at 15° C. with a 16/8 h light period at 50 μmol·m^−2·s^−1. After 7 days, the first leaf was fully developed and the second leaf had started to grow. A tip section of the first leaf, approximately 35 mm long, was removed from 5 seedlings and trimmed slightly to a combined weight of 100 mg. The basal ends of the five leaf tips were placed in the wells of a microtiter polystyrene plate containing 150 μl of a cytokinin solution each. The entire plate was inserted into a plastic box lined with paper tissues soaked in distilled water to prevent leaf sections from drying out. After a 96 h incubation in the dark at 25° C., the leaves were removed and chlorophyll extracted by heating at 80° C. for 10 min in 5 ml of 80% ethanol (v/v). The sample volume was then restored to 5 ml by the addition of 80% ethanol (v/v). The absorbency of the extract was recorded at 665 nm. In addition, chlorophyll extracts from fresh leaves and leaf tips incubated in deionised water were measured. From the obtained data, the concentration with highest activity was selected for each compound tested. Relative activity of the compound at this concentration was calculated (Tab. 10). The activity obtained for 10^−4 M 6-benzylaminopurine (BAP) was postulated as 100%. The values shown are means of five replicates and the whole experiment was repeated twice. The cytokinins to be tested were dissolved in dimethylsulfoxide (DMSO) and the solution brought up to 10^−3M with distilled water. This stock was further diluted in distilled water to concentrations ranging from 10^−8M to 10^−4M.

| SMILES | IC50 (HOS) [µM] | IC50 [1] [µM] | IC50 [2] [µM] | IC50 (mouse fibroblasts NIH3T3) [µM] | IC50 [3] [µM] | IC50 (promyelocytic HL-60) [µM] | Concentration with highest activity [4] | Activity (%) [10^−5 mol · l^−1 BAP = 100%] [4] [%] | Concentration with highest activity [5] | Activity (%) [10^−4 mol · l^−1 BAP = 100%] [5] [%] |
| --- | --- | --- | --- | --- | --- | --- | --- | --- | --- | --- |
| CSc1nc(NCc2cccc(Cl)c2)c2ncn([C@@H]3O[C@H](CO)[C@@H](O)[C@H]3O)c2n1 [R2 = SCH3,3-chlorobenzylamino] | > 167 | 35 | > 167 | > 167 | 13.2 | 6.1 |  |  |  |  |
| Nc1nc(NCc2ccccc2F)c2ncn([C@@H]3O[C@H](CO)[C@@H](O)[C@H]3O)c2n1 [R2 = NH2,2-fluorobenzylamino] | > 167 | 45 | > 167 |  | 14.5 | 8.7 |  |  |  |  |
| COc1cc(CNc2ncnc3c2ncn3[C@@H]2O[C@H](CO)[C@@H](O)[C@H]2O)cc(OC)c1 [3,5-dimethoxyxybenzylamino, 6-(3,5-dimethoxybenzylamino)purine riboside] | > 167 | > 167 | > 167 | > 167 |  | 18.8 |  |  |  |  |
| OCC1OC(n2cnc3c(NCc4ccccc4F)nc(Cl)nc32)C(O)C1O (centres unmarked) [R2 = Cl, 2-fluorobenzylamino] | > 167 | 30 | > 167 |  | 4.2 | 2.5 |  |  |  |  |
| O=[N+]([O-])c1ccc(CNc2ncnc3c2ncn3[C@@H]2O[C@H](CO)[C@@H](O)[C@H]2O)cc1 [4-nitrobenzylamino, 6-(4-nitrobenzylamino)purine riboside] |  |  |  |  |  |  | 10^−4 mol · l^−1 | 25 ± 3 |  |  |
| OC[C@H]1O[C@@H](n2cnc3c(NCc4ccc(F)cc4)nc(Cl)nc32)[C@H](O)[C@@H]1O [R2 = Cl, 4-fluorobenzylamino] | 19 | 5.8 | 12 | > 167 | 1.5 | 0.7 |  |  |  |  |
| CSc1nc(NCc2ccccc2F)c2ncn([C@@H]3O[C@H](CO)[C@@H](O)[C@H]3O)c2n1 [R2 = SCH3,2-fluorobenzylamino] | > 167 | 42 | > 167 |  | 9.7 | 11.4 |  |  |  |  |
| COc1ccc(CNc2ncnc3c2ncn3[C@@H]2O[C@H](CO)[C@@H](O)[C@H]2O)cc1OC [3,4-dimethoxybenzylamino, 6-(3,4-dimethoxybenzylamino)purine riboside] |  |  |  |  |  |  | 10^−4 mol · l^−1 | 2 ± 1 | 10^−4 mol · l^−1 | 47 ± 6 |
| Nc1nc(NCc2ccccc2Cl)c2ncn(C3OC(CO)C(O)C3O)c2n1 (centres unmarked) [R2 = NH2,2-chlorobenzylamino] | > 167 | 78 | > 167 | > 167 | 24.7 | 10.3 |  |  |  |  |
| OC[C@H]1O[C@@H](n2cnc3c(NCc4cccc(Cl)c4)nc(Cl)nc32)[C@H](O)[C@@H]1O [R2 = Cl, 3-chlorobenzylamino] | > 167 | 28 | > 167 | > 167 | 1.1 | 0.6 |  |  |  |  |
| CSc1nc(NCc2ccccc2Cl)c2ncn([C@@H]3O[C@H](CO)[C@@H](O)[C@H]3O)c2n1 [R2 = SCH3,2-chlorobenzylamino] | > 167 | 78 | > 167 | > 167 | 14.6 | 7.4 |  |  |  |  |
| OCC1OC(n2cnc3c(NCc4ccccc4Cl)nc(Cl)nc32)C(O)C1O (centres unmarked) [R2 = Cl, 2-chlorobenzylamino] | > 167 | 61 | > 167 | > 167 | 8.5 | 1.2 |  |  |  |  |
| Nc1nc(NCc2cccc(Cl)c2)c2ncn([C@@H]3O[C@H](CO)[C@@H](O)[C@H]3O)c2n1 [R2 = NH2,3-chlorobenzylamino] | > 167 | 43 | > 167 | > 167 | 10.2 | 5.8 |  |  |  |  |
| Nc1nc(NCc2ccc(F)cc2)c2ncn([C@@H]3O[C@H](CO)[C@@H](O)[C@H]3O)c2n1 [R2 = NH2,4-fluorobenzylamino] | 43 | 13 | 25 | > 167 | 12.1 | 2.9 |  |  |  |  |
| O=[N+]([O-])c1cccc(CNc2ncnc3c2ncn3[C@@H]2O[C@H](CO)[C@@H](O)[C@H]2O)c1 [3-nitrobenzylamino, 6-(3-nitrobenzylamino)purine riboside] |  |  |  |  |  |  | 10^−4 mol · l^−1 | 66 ± 7 |  |  |
| OCC1OC(n2cnc3c(NCc4ccc(Cl)cc4)nc(Cl)nc32)C(O)C1O (centres unmarked) [R2 = Cl, 4-chlorobenzylamino] | > 167 | 15 | > 167 | > 167 | 5.8 | 5 |  |  |  |  |
| OC[C@H]1O[C@@H](n2cnc3c(NCc4ccc(F)c(F)c4F)ncnc32)[C@H](O)[C@@H]1O [2,3,4-trifluorobenzylamino, 6-(2,3,4-trifluorobenzylamino)purine riboside] | > 167 | > 167 | > 167 | > 167 | 58.2 | 13 |  |  | 10^−4 mol · l^−1 | 144 ± 12 |
| COc1ccc(CNc2ncnc3c2ncn3[C@@H]2O[C@H](CO)[C@@H](O)[C@H]2O)c(OC)c1 [2,4-dimethoxybenzylamino, 6-(2,4-dimethoxybenzylamino)purine riboside] | > 167 | > 167 | > 167 | > 167 | > 167 | 39 | 10^−5 mol · l^−1 | 3 ± 3 |  |  |
